A short description of this series: Storage stability of amorphous solifenacin succinate and premix compositions, purity and impurities by HPLC. The series is classed as physicochemical. The settings on record: triple laminated package, nitrogen atmosphere. On the procedure:
The spray-dried product was packaged in a triple laminated package (two polyethylene layers covered with a layer of aluminium foil) containing a nitrogen atmosphere and samples were analyzed for impurity content at the time of packaging and after 7 days of storage at 0-5° C., using high-performance liquid chromatography (HPLC). The results are tabulated below:
6. The dried solid was packed in a double polyethylene bag with a silica desiccant pouch and the package was exposed to 0-5° C. and room temperature (RT) conditions for 25 days, then was analyzed by XRD and HPLC. The analytical data are given below:
The solid prepared was packaged in a double polyethylene bag with a silica desiccant and exposed to 0-5° C. and room temperature (RT) conditions for 27 days, and then samples were analyzed by XRD and HPLC. The data are given below:
The dried solid was packaged in a double polyethylene bag with a silica desiccant and exposed to 0-5° C. conditions for 16 days. A sample was then analyzed by XRD and HPLC, giving the following results:
The solid prepared was packaged in a double polyethylene bag and exposed at 0-5° C. and at room temperature (RT) for 20 days. Samples were then analyzed by XRD and by HPLC, giving the data below:
The solid products of Examples 6A and 6B, similarly packaged and stored under 0-5° C. and RT conditions for about 7 months, were analyzed and the data are given below: […]

Regarding `O=C(O[C@H]1CN2CCC1CC2)N1CCc2ccccc2[C@@H]1c1ccccc1` [Example 2, Amorphous Solifenacin Succinate], the “HSI (highest single impurity)” value (7th day of storage at 0-5° C.) is 0.25 % of drug content and the “HSI (highest single impurity)” value (initial, at the time of packaging) was 0.03 % of drug content.

The values are drawn from patent US20100137358A1, “SOLIFENACIN COMPOSITIONS” (DR. REDDY'S LABORATORIES LTD., priority 1996, published 2010).
